Experimental data: paper PMC2974656, “Selective killing of human immunodeficiency virus infected cells by non-nucleoside reverse transcriptase inhibitor-induced activation of HIV protease” (Retrovirology, 2010)
Where two headings read alike, the source gives them in different places.

Key:
HIV-1IIIB = assay: Direct antiviral activity: MT4-LTR-EGFP cells infected with HIV-1IIIB, EGFP fluorescence; format: cell-based; conditions: read-out: Inhibition of HIV replication in vitro EC50
Procedure: After 3 days of incubation, infected cells were quantified by determination of total EGFP fluorescence per well based on microscopy and subsequent image analysis. Threshold values were determined from the average pixel value plus 6 standard deviations from the uninfected control wells, and the median threshold from all control wells on a plate was defined as baseline GFP expression. Intensity values for the sample wells were then determined by subtracting the background threshold from each pixel value obtained from the image of the respective well and calculating the sum of net pixel intensities. Percent inhibition was calculated as 100 * (1 - (Sample - CC)/(VC - CC)).

[1] = system: intracellular Gag processing by HIV PR; format: cell-based, HIV-1; conditions: for Enhancement of alpha complementation: 0.03 to 10 μM NNRTI, result in words
Procedure: In previous studies, high concentrations of NNRTI (5 μM) were required to observe NNRTI mediated activation of intracellular HIV PR activity. […]. Towards this end, we developed a biochemical assay for gel independent quantitation of intracellular Gag processing by HIV PR in the context of a virus producing cell. We had previously shown that additional protein domains, consisting of small epitope tags or even the 27 kDa green fluorescent protein (EGFP), can be inserted between the MA and CA domains of the Gag and Gag-Pol polyproteins without affecting polyprotein production or processing by HIV PR [36]. Based on this, we designed a HIV reporter construct which contained a small N-terminal fragment ('alpha peptide') of Escherichia coli beta-galactosidase (β-Gal), flanked by two HIV PR recognition sites, between the MA and CA coding sequences of Gag (Figure 1A). […] This so called alpha complementation principle can be exploited for use in mammalian cells and has been employed for the establishment of various cell based biochemical assay systems. We reasoned that embedding of the small alpha peptide within the multi-domain polyproteins Gag or Gag-Pol, respectively, should impair its productive association with the omega subunit, while proteolytic release of the alpha peptide from the polyprotein by PR would allow the formation of enzymatically active β-Gal. This should allow us to monitor intracellular Gag and Gag-Pol processing through increased β-Gal activity.
Reconstituted β-Gal activity in cell lysates was measured by cleavage of the chromogenic substrate CPRG [42] as described in Methods.
The activity of β-Gal in cell lysates from transfected 293T cells was measured by enzymatic cleavage of the chromogenic β-Gal substrate chlorphenolred-β-D-galactopyranoside (CPRG, Roche; [42]). At 44 h post transfection, cells were briefly rinsed with PBS and suspended in reporter gene assay lysis buffer (Roche, 600 μl per 6-well dish) supplemented with a protease inhibitor mix (Roche). Cell suspensions were incubated for 10 min at room temperature and cell debris was subsequently removed by brief centrifugation. Five μl of supernatant were diluted in 96-well plates with 95 μl CPRG reaction buffer (50 mM potassium phosphate, pH 7.5, 1 mM MgCl2) and pre-warmed for 5 min to 37°C. 100 μl of pre-warmed reaction mix (100 μM CPRG in CPRG reaction buffer supplemented with protease inhibitor cocktail and 40 μM β-mercaptoethanol) were added and β-Gal mediated cleavage of CPRG was monitored by recording absorption at 592 nm every 2 min for 20 min at 37°C using a TECAN Safire multi-well reader. OD592 values were plotted over time and relative reaction rates (OD592/min) were determined from the initial linear velocities.

[2] = Cytotoxicity on uninfected control cells, EGFP fluorescence per well; format: cell-based; conditions: human
Procedure: (§1) The cytotoxicity of inhibitors was determined in parallel on MT4-CMV-EGFP control cells and on MT4-LTR-EGFP-IIIB virus producing cells, respectively.

RT heterodimer (p66/p51) = target: T1, RT heterodimer (p66/p51) (Human immunodeficiency virus type 1 group M subtype B, UniProt P04585); assay: cell-based; format: cell-based, HIV-1; conditions: for Promotion of RT dimerization, in words: summary of Table 1
T1 construct: the bait protein (p66) was fused to the C-terminus of a chimeric receptor; expressed in transfected cells; host or cells: mammalian cells
Excerpt: RT heterodimer formation was monitored using a mammalian two hybrid system described previously. In brief, the bait protein (p66) was fused to the C-terminus of a chimeric receptor consisting of the extracellular part of the erythropoietin receptor and the intracellular part of the leptin receptor incapable of STAT activation. The prey protein (p51) was coupled to a part of the cytoplasmic tail of the gp130 chain carrying several STAT3 recruitment domains. Interaction of bait and prey protein leads to functional complementation of STAT3 activity, which results in Epo dependent induction of a STAT3-responsive luciferase reporter gene. Enhancement of this interaction by the addition of compounds can thus be measured by an increase of luciferase expression.

[3] = system: MT4-CMV-EGFP control cells; assay: Cytotoxicity on uninfected control cells, EGFP fluorescence per well; format: cell-based
Procedure: as §1

[4] = system: MT4-LTR-EGFP-IIIB HIV-1 producing cells; assay: in vitro; format: cell-based; conditions: for CC50: 4 days; for Cytotoxicity on MT4-LTR-EGFP-IIIB cells, in words: summary of Table 1
Procedure: as §1

[5] = system: Gag processing in MT-4-IIIB cells; assay: Immunoblot of Gag processing in chronically infected MT-4 cells; format: cell-based, HIV-1
HIV-1AGFP infected PBMC = assay: Killing of HIV-1 infected PBMC, proportion of GFP expressing cells by flow cytometry; format: cell-based, human; conditions: 1 μM NNRTI, added day 2 post infection with AMD-3100, 5 days
Procedure: PBMC isolated from healthy blood donors were activated and infected with a replication competent HIV-1 derivative which carries a gfp gene in the nef locus [49]. The co-receptor antagonist AMD-3100 was added at day 2 post infection to prevent further viral spread.

[6] = system: HXB2D-EGFP infected CD4 positive cells isolated from PBMC; assay: Killing of HIV-1 infected CD4 positive primary T-cells, flow cytometry; format: cell-based, human
Procedure: To validate our results obtained for the persistently infected cell line in a more relevant cell system we performed additional infection experiments using human peripheral blood mononuclear cells (PBMC). […]. PBMC isolated from healthy blood donors were activated and infected with a replication competent HIV-1 derivative which carries a gfp gene in the nef locus. The co-receptor antagonist AMD-3100 was added at day 2 post infection to prevent further viral spread. This was done to distinguish the proposed killing of infected cells from the inhibitory effect of NNRTIs and PIs on virus replication. […]. […] Similar results were obtained upon infection of CD4-positive primary T-cells with an EGFP-expressing virus (Figure 4B).
Figure 4 NNRTI induced selective killing of HIV-1 infected primary human cells. (A) PBMC prepared from buffy coats of healthy blood donors were infected with HIV-1AGFP. At day 2 post infection, 100 ng/ml AMD-3100 was added to all samples to prevent further infection. […] After further incubation for 5 days, cells were harvested and analyzed for the proportion of infected GFP expressing cells by flow cytometry. […] P-values were calculated using a two-tailed unpaired t-test (GraphPad Prism). Values were normalized to the respective solvent control. (B) CD4 positive cells isolated from PBMC were infected with HXB2D-EGFP. […] After further incubation for 3 days, cells were harvested and analyzed for the proportion of infected cells by flow cytometry. […] Asterisks: non-infected controls.
Peripheral blood mononuclear cells (PBMC) were purified from buffy coats of HIV-negative blood donors, grown in supplemented RPMI 1640 and stimulated by the addition of 10 ng/ml IL-2 (Biomol) and 2 μg/ml PHA (Sigma). PBMC pooled from two donors each were used for infection. […] For infection of PBMC, the HIV-1 derivatives HIV-1-AGFP [49] carrying the gfp gene fused to the codon for amino acid 16 of Nef in pNL4-3, or HXB2D-EGFP [60], which carries an egfp gene in the place of the viral nef open reading frame, were used as indicated. […]

[7] = target: omega fragment of beta-galactosidase (inactive fragment lacking amino acids 11-41), encoded by pCMVω (Escherichia coli)
[8] = system: intracellular HIV PR activity; parameters: method as in PMID 17096588; conditions: 5 μM NNRTI; cited from earlier work
in vitro = format: cell-based; conditions: human, 4 days, no DRV; mean ± SD; tested up to 10 μM; read-out: Cytotoxicity on MT4-LTR-EGFP-IIIB HIV-1 producing cells CC50
Procedure: as §1

293T cells = assay: Microscopically detectable impairment of cell growth of transfected 293T cells; format: cell-based; conditions: high NNRTI concentrations (5 μM and above)
Procedure: At 44 h post transfection, cell lysates were analyzed for β-Gal activity.

[9] = MT4-LTR-EGFP cells, HIV-1IIIB MOI 0.01, 3 days, mean ± SD of three or more measurements
[10] = 293T cells, 44 h post transfection
[11] = no DRV, mean ± SD, tested up to 10 μM, read-out: Cytotoxicity on MT4-LTR-EGFP-IIIB HIV-1 producing cells CC50
[12] = concentration enhancing luciferase signal by 50% over control, read-out: Enhancement of RT-Dimerization EC50
[13] = Human immunodeficiency virus 1, 72 h, MT4-LTR-EGFP cells, HIV-1IIIB MOI 0.01, 3 days, mean ± SD of three or more measurements
[14] = MT4-CMV-EGFP control cells (uninfected), 4 days, mean ± SD, tested up to 10 μM, read-out: Cytotoxicity on MT4-CMV-EGFP control cells CC50

In the case of `CCc1nn(CCO)c(CC)c1Oc1cc(C#N)cc(C#N)c1` [UK-453061], the EC50 (HIV-1IIIB; Human immunodeficiency virus 1, 72 h) is reported as 7.5 ± 1.4 nM, the “Enhancement of alpha complementation” value [1] is reported as “little or no enhancement” and the CC50 at 4 days [2] is reported as over 10000 nM. It also gave an EC50 (RT heterodimer (p66/p51)) of 150 nM.
With `Cc1cc(S(N)(=O)=O)ccc1NC(=O)COc1ccc(Cl)cc1C(=O)c1cc(Cl)cc(C#N)c1` [GW-678248] the EC50 (HIV-1IIIB; [9]) was 0.84 ± 0.25 nM, the “Concentration showing strong β-Gal activity enhancement” value [1, 10] was ~ 250 nM and the CC50 [3] was over 10000 nM. For the same compound, the CC50 [4, 11] was 630 ± 290 nM, the CC50 ([4]; read-out: CC50 on virus producing cells in the absence of DRV, one representative experiment (Fig. 3C), 4 parameter fit) was 350 nM and the “Cytotoxicity on MT4-LTR-EGFP-IIIB cells, in words” value [4] was “submicromolar range”. The EC50 (RT heterodimer (p66/p51); [12]) was 3.2 nM, the “Promotion of RT dimerization, in words” value (RT heterodimer (p66/p51)) was “low nM range” and the “NNRTI mediated enhancement of Gag processing in virus producing cells” value ([5]; 1 μM, day 2 post addition) was “decreased ratio of Gag to intermediate and fully mature processing products”. The “Infected primary cells (PBMC) as compared with the control” value (HIV-1AGFP infected PBMC) was “significant reduction” and the “Cytotoxicity on infected CD4-positive primary T-cells” value ([6]; 1 μM NNRTI + 1 μM AZT, 3 days) was “PR dependent cytotoxicity”.
“alpha peptide of Escherichia coli beta-galactosidase (amino acids 1-51), released from Gagα by HIV-1 (from UniProt P00722 1-51)” gave a β-Gal activity (relative rate of CPRG cleavage) in lysates of 293T cells co-transfected with pCMVω and pCHIV.MAα, DMSO control [7] of 0.109 min^-1.
In the case of `Cc1ccnc2c1NC(=O)c1cccnc1N2C1CC1` [NVP, nevirapine], the EC50 (HIV-1IIIB; [13]) is reported as 42 ± 20 nM, the “Enhancement of alpha complementation” value [1] is reported as “little or no enhancement” and the CC50 at 4 days [2, 14] is reported as over 10000 nM. The “Stimulation of Gag or Gag-Pol processing” value [8] was “did not stimulate”.
“modified Gagα precursor: HIV-1 Gag polyprotein with the β-Gal alpha peptide inserted between MA and CA (from pCHIV.MAα) (from UniProt P12493;P00722)” gave a β-Gal activity (relative rate of CPRG cleavage) in lysates of 293T cells co-transfected with pCMVω and pCHIV.MAα, grown with 2 μM LPV (Gagα processing nearly completely blocked) [7] of 0.054 min^-1.
For `CC(C)CN(C[C@@H](O)[C@H](Cc1ccccc1)NC(=O)O[C@H]1CO[C@H]2OCC[C@H]21)S(=O)(=O)c1ccc(N)cc1` [DRV, darunavir], the “Gag processing under DRV treatment” value ([5]; 200 nM DRV) was “impaired” and the “Effect of DRV on the NNRTI effect in CD4-positive primary T-cells” value ([6]; 100 nM DRV + 1 μM NNRTI + 1 μM AZT) was “completely reversed”.
In the case of `Cc1cc(C)c(Nc2ccnc(Nc3ccc(C#N)cc3)n2)c(C)c1` [TMC-120], the EC50 (HIV-1IIIB; [13]) is reported as 1.7 ± 1.4 nM, the “Enhancement of alpha complementation” value [1] is reported as “little or no enhancement” and the CC50 at 4 days [2, 14] is reported as 3020 ± 900 nM. The “Cytotoxicity on uninfected MT4-CMV-EGFP control cells, in words” value ([3]; text summary of Table 1, tested range up to 10 μM) was “comparable toxicity”, the CC50 at 4 days (in vitro) was 2560 ± 740 nM and the “Cytotoxicity on MT4-LTR-EGFP-IIIB cells, in words” value [4] was “displayed toxicity”. The “Impairment of cell growth with decrease in β-Gal activity indicative of cytotoxic effects” value (293T cells) was “most pronounced” and the “Stimulation of Gag or Gag-Pol processing” value [8] was “stimulation of Gag processing”.
In the case of `Cc1cc(C#N)cc(C)c1Oc1nc(Nc2ccc(C#N)cc2)nc(N)c1Br` [ETV, etravirine], the EC50 (HIV-1IIIB; [13]) is reported as 3.2 ± 5 nM, the “Concentration required to achieve the maximal effect on β-Gal activity” value [1, 10] is reported as ~ 1 μM and the CC50 at 4 days [2, 14] is reported as over 10000 nM. The EC50 (RT heterodimer (p66/p51)) was 270 nM and the “Impairment of cell growth with decrease in β-Gal activity indicative of cytotoxic effects” value (293T cells) was “most pronounced”.
With `COP(=O)(c1cc(C)cc(/C=C/C#N)c1)c1c(C(N)=O)[nH]c2ccc(Cl)cc12` (centres unmarked) [IDX-12899] the EC50 (HIV-1IIIB; [9]) was 1.9 ± 1.3 nM, the “Concentration showing strong β-Gal activity enhancement” value [1, 10] was ~ 250 nM and the CC50 [3] was over 10000 nM. For the same compound, the CC50 [4, 11] was 290 ± 210 nM, the “Cytotoxicity on MT4-LTR-EGFP-IIIB cells, in words” value [4] was “submicromolar range” and the EC50 (RT heterodimer (p66/p51); [12]) was 4.6 nM. For the same compound, the “Promotion of RT dimerization, in words” value (RT heterodimer (p66/p51)) was “low nM range”.
For `CC(C)Nc1cccnc1N1CCN(C(=O)c2cc3cc(NS(C)(=O)=O)ccc3[nH]2)CC1` [DLV, delavirdine], the “Stimulation of Gag or Gag-Pol processing” value [8] is given as “did not stimulate”.
